Laboratory results from patent publication US7880010B2, “Crystalline forms of a dimethylphenyl compound” (Theravance, Inc., priority 2006, dated 2011).

Columns and labels:
Assay in all cases: Radioligand binding assay for muscarinic receptors ([3H]-NMS displacement)
hM1 muscarinic receptor = molecular target: T1, hM1 muscarinic receptor (Homo sapiens, UniProt P11229); conditions: M1 muscarinic receptor subtype, CHO cell membranes, [3H]-NMS 1 nM
T1 construct: expressed in transfected cells; host or cells: CHO
T1 sequence (P11229 1-460): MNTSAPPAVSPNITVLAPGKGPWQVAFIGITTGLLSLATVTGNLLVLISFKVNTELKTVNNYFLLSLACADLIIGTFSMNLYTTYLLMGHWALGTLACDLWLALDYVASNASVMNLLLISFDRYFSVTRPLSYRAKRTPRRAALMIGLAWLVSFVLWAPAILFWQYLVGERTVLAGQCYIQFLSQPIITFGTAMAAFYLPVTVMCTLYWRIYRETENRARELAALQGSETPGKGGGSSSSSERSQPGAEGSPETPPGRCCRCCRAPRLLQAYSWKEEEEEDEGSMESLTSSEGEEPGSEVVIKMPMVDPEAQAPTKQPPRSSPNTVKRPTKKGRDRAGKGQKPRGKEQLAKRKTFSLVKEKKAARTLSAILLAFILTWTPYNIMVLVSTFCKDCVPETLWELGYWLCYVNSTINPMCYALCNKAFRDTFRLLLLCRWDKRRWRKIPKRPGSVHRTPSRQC
Method: (§1) CHO cell lines stably expressing cloned human hM1, hM2, hM3 and hM4 muscarinic receptor subtypes, respectively, were grown to near confluency in Hams F-12 media supplemented with 10% FBS and 250 μg/mL Geneticin. The cells were grown in a 5% CO2, 37° C. incubator and lifted with 2 mM EDTA in dPBS. Cells were collected by 5 minute centrifugation at 650×g, and cell pellets were either stored frozen at −80° C. or membranes were prepared immediately for use. For membrane preparation, cell pellets were resuspended in lysis buffer and homogenized with a Polytron PT-2100 tissue disrupter (Kinematica AG; 20 seconds×2 bursts). Crude membranes were centrifuged at 40,000×g for 15 minutes at 4° C. The membrane pellet was then resuspended with re-suspension buffer and homogenized again with the Polytron tissue disrupter. The protein concentration of the membrane suspension was determined by the method described in Lowry et al., 1951, Journal of Biochemistry, 193, 265. All membranes were stored frozen in aliquots at −80° C. or used immediately. Aliquots of prepared hM5 receptor membranes were purchased directly from PerkinElmer, Inc. (Wellesley, Mass.) and stored at −80° C. until use.
(§2) Radioligand binding assays for cloned muscarinic receptors were performed in 96-well microtiter plates in a total assay volume of 100 μL. CHO cell membranes stably expressing either the hM1, hM2, hM3, hM4 or hM5 muscarinic subtype were diluted in assay buffer to the following specific target protein concentrations (μg/well): 10 μg for hM1, 10-15 μg for hM2, 10-20 μg for hM3, 10-20 μg for hM4, and 10-12 μg for hM5 to get similar signals (cpm). The membranes were briefly homogenized using a Polytron tissue disrupter (10 seconds) prior to assay plate addition. Saturation binding studies for determining KD values of the radioligand were performed using L-[N-methyl-^3H]scopolamine methyl chloride ([^3H]-NMS) (TRK666, 84.0 Ci/mmol, Amersham Pharmacia Biotech, Buckinghamshire, England) at concentrations ranging from 0.001 nM to 20 nM. Displacement assays for determination of Ki values of test compounds were performed with [^3H]-NMS at 1 nM and eleven different test compound concentrations. The test compounds were initially dissolved to a concentration of 400 μM in dilution buffer and then serially diluted 5× with dilution buffer to final concentrations ranging from 10 pM to 100 μM. The addition order and volumes to the assay plates were as follows: 25 μL radioligand, 25 μL diluted test compound, and 50 μL membranes. Assay plates were incubated for 60 minutes at 37° C. Binding reactions were terminated by rapid filtration over GF/B glass fiber filter plates (PerkinElmer, Inc.) pre-treated in 1% BSA. Filter plates were rinsed three times with wash buffer (10 mM HEPES) to remove unbound radioactivity. The plates were then air-dried and 50 μL Microscint-20 liquid scintillation fluid (PerkinElmer, Inc.) were added to each well. The plates were then counted in a PerkinElmer Topcount liquid scintillation counter (PerkinElmer, Inc.). Binding data were analyzed by nonlinear regression analysis with the GraphPad Prism Software package (GraphPad Software, Inc., San Diego, Calif.) using the one-site competition model. Ki values for test compounds were calculated from observed IC50 values and the KD value of the radioligand using the Cheng-Prusoff equation (Cheng Y; Prusoff W H. (1973) Biochemical Pharmacology, 22(23):3099-108). […]

hM2 muscarinic receptor = molecular target: T2, hM2 muscarinic receptor (Homo sapiens, UniProt P08172); conditions: M2 muscarinic receptor subtype, CHO cell membranes, [3H]-NMS 1 nM
T2 construct: expressed in transfected cells; host or cells: CHO / CHO-K1
T2 sequence (P08172 1-466): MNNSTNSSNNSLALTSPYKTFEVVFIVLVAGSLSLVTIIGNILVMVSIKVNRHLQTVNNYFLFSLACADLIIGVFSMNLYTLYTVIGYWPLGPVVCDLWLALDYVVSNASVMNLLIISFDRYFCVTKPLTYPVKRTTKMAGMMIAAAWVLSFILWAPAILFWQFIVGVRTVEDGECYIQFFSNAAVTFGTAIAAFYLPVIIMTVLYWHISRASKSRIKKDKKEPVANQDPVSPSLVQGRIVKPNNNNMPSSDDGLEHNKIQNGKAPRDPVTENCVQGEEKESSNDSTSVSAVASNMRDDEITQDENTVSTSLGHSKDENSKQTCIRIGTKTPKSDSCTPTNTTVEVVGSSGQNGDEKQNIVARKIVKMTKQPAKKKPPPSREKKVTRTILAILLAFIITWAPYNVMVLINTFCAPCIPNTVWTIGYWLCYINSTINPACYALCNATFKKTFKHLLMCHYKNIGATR
Method: as §1, §2

hM4 muscarinic receptor = molecular target: T3, hM4 muscarinic receptor (Homo sapiens, UniProt P08173); conditions: M4 muscarinic receptor subtype, CHO cell membranes, [3H]-NMS 1 nM
T3 construct: expressed in transfected cells; host or cells: CHO
T3 sequence (P08173 1-479): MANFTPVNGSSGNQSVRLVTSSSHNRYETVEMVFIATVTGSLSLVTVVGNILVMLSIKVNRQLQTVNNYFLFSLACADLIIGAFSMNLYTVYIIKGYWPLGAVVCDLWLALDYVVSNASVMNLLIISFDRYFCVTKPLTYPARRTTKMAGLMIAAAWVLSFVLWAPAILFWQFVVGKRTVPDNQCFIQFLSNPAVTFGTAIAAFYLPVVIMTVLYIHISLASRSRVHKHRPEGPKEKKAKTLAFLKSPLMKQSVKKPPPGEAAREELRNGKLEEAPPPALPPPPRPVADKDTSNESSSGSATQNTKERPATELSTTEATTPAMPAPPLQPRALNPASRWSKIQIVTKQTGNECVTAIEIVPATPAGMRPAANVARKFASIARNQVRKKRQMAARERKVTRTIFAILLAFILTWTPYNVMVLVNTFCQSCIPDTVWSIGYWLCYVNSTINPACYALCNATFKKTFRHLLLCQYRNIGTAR
Method: as §1, §2

Measured: Ki

Cc1cc(NC(=O)CCN2CCC(OC(=O)Nc3ccccc3-c3ccccc3)CC2)c(C)cc1CNC[C@H](O)c1ccc(O)c(NC=O)c1 [compound of formula I, biphenyl-2-ylcarbamic acid 1-[2-(4-{[(R)-2-(3-formylamino-4-hydroxyphenyl)-2-hydroxyethylamino]methyl}-2,5-dimethylphenylcarbamoyl)ethyl]-piperidin-4-yl ester]
< 10 nM: all assays above
